The results in this text go back to US10493077B2, “Fused imidazo-piperidine JAK inhibitor compound” (THERAVANCE BIOPHARMA R&D IP, LLC, priority 2017, dated 2019).

In general, inhibition refers to the relative decrease from the control value, in per cent. Read a low inhibition as a weak effect.

SMILES strings stand for the structures.

Assay [1] deals with IL-2/anti-CD3 stimulated IFNγ in human PBMCs. Nature of the assay: Cellular JAK potency assay: inhibition of IL-2/anti-CD3 stimulated IFNγ in human PBMCs. The assay is classed as cell-based. The note with it: PBMC, 24 h stimulation, read-out: pIC50, inhibition of IL-2/anti-CD3 stimulated IFNγ (converted). As for the experimental part: The potency of the test compound for inhibition of interleukin-2 (IL-2)/anti-CD3 stimulated interferon gamma (IFNγ) was measured in human peripheral blood mononuclear cells (PBMCs) isolated from human whole blood (Stanford Blood Center). Because IL-2 signals through JAK, this assay provides a measure of JAK cellular potency.
(1) Human peripheral blood mononuclear cells (PBMC) were isolated from human whole blood of healthy donors using a ficoll gradient. Cells were cultured in a 37° C., 5% CO2 humidified incubator in RPMI (Life Technologies) supplemented with 10% Heat Inactivated Fetal Bovine Serum (FBS, Life Technologies), 2 mM Glutamax (Life Technologies), 25 mM HEPES (Life Technologies) and 1× Pen/Strep (Life Technologies). Cells were seeded at 200,000 cells/well in media (50 μL) and cultured for 1 h. The compound was serially diluted in DMSO and then diluted another 500-fold (to a 2× final assay concentration) in media. […]
(2) After cytokine stimulation, cells were centrifuged at 500 g for 5 min and supernatants removed and frozen at −80° C. To determine the inhibitory potency of test compounds in response to IL-2/anti-CD3, supernatant IFNγ concentrations were measured via ELISA (R&D Systems). IC50 values were determined from analysis of the inhibition curves of concentration of IFNγ vs compound concentration. Data are expressed as pIC50 (negative decadic logarithm IC50) values.

A further assay addresses T1, JAK1 (Homo sapiens, UniProt P23458).
T1 construct: GST; purchased Life Technologies
Nature of the assay: LanthaScreen JAK biochemical assay, JAK1. The note with it: read-out: JAK 1 pKi (converted). As for the experimental part:
(§1) A panel of four LanthaScreen JAK biochemical assays (JAK1, 2, 3 and Tyk2) were carried in a common kinase reaction buffer (50 mM HEPES, pH 7.5, 0.01% Brij-35, 10 mM MgCl2, and 1 mM EGTA). Recombinant GST-tagged JAK enzymes and a GFP-tagged STAT1 peptide substrate were obtained from Life Technologies.
(§2) Serially diluted compound was pre-incubated with each of the four JAK enzymes and the substrate in white 384-well microplates (Corning) at ambient temperature for 1 h. ATP was subsequently added to initiate the kinase reactions in 10 μL total volume, with 1% DMSO. […] The plates were allowed to incubate at ambient temperature for 1 h before being read on the EnVision reader (Perkin Elmer). Emission ratio signals (520 nm/495 nm) were recorded and utilized to calculate the percent inhibition values based on DMSO and background controls.
(§3) For dose-response analysis, percent inhibition data were plotted vs. compound concentrations, and IC50 values were determined from a 4-parameter robust fit model with the Prism software (GraphPad Software). Results were expressed as pIC50 (negative logarithm of IC50) and subsequently converted to pKi (negative logarithm of dissociation constant, Ki) using the Cheng-Prusoff equation.
For orientation: Time-resolved FRET reads energy transfer from a long-lived donor to a nearby acceptor.

The target of another assay is T2, Tyk2 (Homo sapiens, UniProt P29597).
T2 construct: GST; purchased Life Technologies
As to the kind of experiment: LanthaScreen JAK biochemical assay, Tyk2. The note with it: read-out: Tyk2 pKi (converted). Here is the method: as §1, §2, §3

A further assay concerns IFNγ induced IP-10. As to the kind of experiment: Pharmacodynamic assay: inhibition of IFNγ-induced IP-10 in rabbit eyes. The assay is classed as in vivo. The note with it: Form 1 suspension, 0.9 mg intravitreal, 1 week pre-treatment, New Zealand White rabbits. Here is the method: The ability of a single intravitreal administration of test compound to inhibit interferon-gamma (IFNγ) induced IP-10 protein levels was measured in rabbit vitreous and retina/choroid tissues.
A suspension formulation was prepared by combining compound 1 of Example 2 (Form 1), with 0.5% hydroxypropyl methylcellulose (HPMC E5), 0.02% Tween 80, and 9 mg/mL sodium chloride in purified water to attain a target concentration of 20 mg/mL.
Male, New Zealand White rabbits (Liveon Biolabs, India) were used for the studies. Animals were acclimated after arrival at the research facilities (Jubilant Biosys Ltd., India). Each rabbit was given a total of two intravitreal (IVT) injections with a total dose volume of 50 μL per eye. The first IVT injection (45 μL per eye) delivered 0.9 mg of test compound or vehicle. One week later, a second IVT injection (5 μL per eye) delivered IFNγ (1 μg/eye; stock solution 1 mg/mL; Kingfisher Biotech) or vehicle for the induction of IP-10. […]
Tissues were collected 24 hours after the second IVT injection with IFNγ. Vitreous humor (VH) and retina/choroid tissues (R/C) were collected and homogenized, and IP-10 protein levels were measured using a rabbit CXCL10 (IP-10) ELISA kit (Kingfisher Biotech). The percent inhibition of IFNγ-induced IP-10 was calculated in comparison to the vehicle/vehicle and vehicle/IFNγ groups.

A further assay concerns the target T3, SRC (Homo sapiens, UniProt P12931).
T3 construct: made in house; host or cells: T7 phage in E. coli (BL21-derived) or HEK-293
Nature of the assay: Kinome screen, SRC. In kind it is binding. The note with it: screened at 1 μM. As for the experimental part:
Kinase-tagged T7 phage strains were grown in parallel in 24-well blocks in an E. coli host derived from the BL21 strain. E. coli were grown to log-phase and infected with T7 phage from a frozen stock (multiplicity of infection=0.4) and incubated with shaking at 32° C. until lysis (90-150 minutes). The lysates were centrifuged (6,000×g) and filtered (0.2 μm) to remove cell debris. The remaining kinases were produced in HEK-293 cells and subsequently tagged with DNA for qPCR detection.
Streptavidin-coated magnetic beads were treated with biotinylated small molecule ligands for 30 minutes at room temperature to generate affinity resins for kinase assays. The liganded beads were blocked with excess biotin and washed with blocking buffer (SeaBlock (Pierce), 1% BSA, 0.05% Tween 20, 1 mM DTT) to remove unbound ligand and to reduce non-specific phage binding. […] Test compounds were prepared as 40× stocks in 100% DMSO and directly diluted into the assay. All reactions were performed in polypropylene 384-well plates in a final volume of 0.04 ml. […] The beads were then re-suspended in elution buffer (1×PBS, 0.05% Tween 20, 0.5 μM non-biotinylated affinity ligand) and incubated at room temperature with shaking for 30 minutes. The kinase concentration in the eluates was measured by qPCR.

T1 sequence (P23458 whole entry): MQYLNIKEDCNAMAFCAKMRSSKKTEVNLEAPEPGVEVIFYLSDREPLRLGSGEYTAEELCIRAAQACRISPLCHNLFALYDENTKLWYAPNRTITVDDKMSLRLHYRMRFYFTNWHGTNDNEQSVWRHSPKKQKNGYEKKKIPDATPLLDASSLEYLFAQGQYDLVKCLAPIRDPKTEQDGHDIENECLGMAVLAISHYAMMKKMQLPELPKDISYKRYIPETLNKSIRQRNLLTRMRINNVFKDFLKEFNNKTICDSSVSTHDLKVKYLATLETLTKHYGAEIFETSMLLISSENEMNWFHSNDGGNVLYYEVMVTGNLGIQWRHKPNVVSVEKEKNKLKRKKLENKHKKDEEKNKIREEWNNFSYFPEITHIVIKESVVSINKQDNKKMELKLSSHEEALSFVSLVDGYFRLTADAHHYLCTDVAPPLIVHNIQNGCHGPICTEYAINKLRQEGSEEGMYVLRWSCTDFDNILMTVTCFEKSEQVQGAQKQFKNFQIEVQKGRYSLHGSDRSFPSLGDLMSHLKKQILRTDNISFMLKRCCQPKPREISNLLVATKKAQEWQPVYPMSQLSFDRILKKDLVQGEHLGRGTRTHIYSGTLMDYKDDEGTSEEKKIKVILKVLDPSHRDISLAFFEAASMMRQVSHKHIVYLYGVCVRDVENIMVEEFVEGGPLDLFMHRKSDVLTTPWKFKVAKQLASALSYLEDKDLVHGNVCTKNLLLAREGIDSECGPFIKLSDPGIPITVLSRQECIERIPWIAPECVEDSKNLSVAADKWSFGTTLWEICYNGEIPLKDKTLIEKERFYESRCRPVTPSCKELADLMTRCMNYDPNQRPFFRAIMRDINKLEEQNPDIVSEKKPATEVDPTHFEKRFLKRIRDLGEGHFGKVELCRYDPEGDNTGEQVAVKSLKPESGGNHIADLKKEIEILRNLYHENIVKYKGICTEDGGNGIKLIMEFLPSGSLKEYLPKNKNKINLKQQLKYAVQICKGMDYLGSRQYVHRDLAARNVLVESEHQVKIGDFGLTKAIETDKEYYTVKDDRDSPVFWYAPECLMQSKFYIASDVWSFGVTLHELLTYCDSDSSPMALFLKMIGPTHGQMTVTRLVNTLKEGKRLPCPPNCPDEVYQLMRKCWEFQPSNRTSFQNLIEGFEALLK
T3 sequence (P12931 whole entry): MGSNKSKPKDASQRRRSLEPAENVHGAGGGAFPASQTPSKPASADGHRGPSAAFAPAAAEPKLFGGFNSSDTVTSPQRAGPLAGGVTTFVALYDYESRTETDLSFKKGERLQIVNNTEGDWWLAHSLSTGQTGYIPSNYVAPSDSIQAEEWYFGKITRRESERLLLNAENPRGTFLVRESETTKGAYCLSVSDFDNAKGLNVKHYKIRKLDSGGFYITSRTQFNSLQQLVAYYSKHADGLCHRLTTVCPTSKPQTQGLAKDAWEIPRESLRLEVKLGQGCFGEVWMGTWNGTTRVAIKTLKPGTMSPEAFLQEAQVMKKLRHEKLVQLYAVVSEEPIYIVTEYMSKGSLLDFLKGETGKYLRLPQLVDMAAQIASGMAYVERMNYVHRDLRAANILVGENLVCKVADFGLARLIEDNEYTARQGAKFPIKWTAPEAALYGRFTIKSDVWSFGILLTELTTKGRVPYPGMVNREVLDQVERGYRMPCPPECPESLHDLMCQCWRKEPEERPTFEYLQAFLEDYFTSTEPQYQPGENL
T2 sequence (P29597 whole entry): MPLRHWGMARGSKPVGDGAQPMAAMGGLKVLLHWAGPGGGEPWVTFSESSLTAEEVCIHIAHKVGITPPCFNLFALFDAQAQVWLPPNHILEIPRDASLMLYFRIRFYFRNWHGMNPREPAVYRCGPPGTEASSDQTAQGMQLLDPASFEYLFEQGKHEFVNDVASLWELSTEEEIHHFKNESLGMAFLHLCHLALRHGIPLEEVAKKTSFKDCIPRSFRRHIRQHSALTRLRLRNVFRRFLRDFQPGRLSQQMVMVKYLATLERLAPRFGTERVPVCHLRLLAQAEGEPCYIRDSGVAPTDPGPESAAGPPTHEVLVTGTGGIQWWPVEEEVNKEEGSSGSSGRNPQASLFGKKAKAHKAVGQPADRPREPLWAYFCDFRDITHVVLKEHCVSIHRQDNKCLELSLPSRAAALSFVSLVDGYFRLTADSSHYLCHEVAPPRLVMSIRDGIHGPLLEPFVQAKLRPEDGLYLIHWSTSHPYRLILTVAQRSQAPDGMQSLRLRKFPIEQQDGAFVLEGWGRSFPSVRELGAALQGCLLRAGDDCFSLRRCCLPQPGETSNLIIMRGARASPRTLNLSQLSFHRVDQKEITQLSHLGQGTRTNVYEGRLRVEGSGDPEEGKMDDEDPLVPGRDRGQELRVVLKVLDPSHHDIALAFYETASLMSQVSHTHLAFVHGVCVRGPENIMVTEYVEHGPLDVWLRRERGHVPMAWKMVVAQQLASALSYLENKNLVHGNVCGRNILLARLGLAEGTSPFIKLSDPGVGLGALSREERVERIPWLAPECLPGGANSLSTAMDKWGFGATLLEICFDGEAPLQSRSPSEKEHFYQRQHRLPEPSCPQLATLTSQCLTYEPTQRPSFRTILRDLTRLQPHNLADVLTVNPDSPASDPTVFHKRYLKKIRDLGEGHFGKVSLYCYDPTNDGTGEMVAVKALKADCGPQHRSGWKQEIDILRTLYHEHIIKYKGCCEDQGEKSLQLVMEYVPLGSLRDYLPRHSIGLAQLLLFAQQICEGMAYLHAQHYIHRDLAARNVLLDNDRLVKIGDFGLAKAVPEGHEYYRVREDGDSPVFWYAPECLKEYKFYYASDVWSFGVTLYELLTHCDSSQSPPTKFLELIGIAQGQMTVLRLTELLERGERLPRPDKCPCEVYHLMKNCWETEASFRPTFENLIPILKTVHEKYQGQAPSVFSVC

As to `CCc1cc(O)c(F)cc1-c1cc(F)c2c(-c3nc4c([nH]3)CCN(C(=O)CN3CCOCC3)C4)n[nH]c2c1` [Compound 1, 1-(2-(6-(2-ethyl-5-fluoro-4-hydroxyphenyl)-4-fluoro-1H-indazol-3-yl)-1,4,6,7-tetrahydro-5H-imidazo[4,5-c]pyridin-5-yl)-2-morpholinoethan-1-one], the IC50 in assay [1] was roughly 200 nM. Besides, at JAK1, the Ki was 0.1 nM. Moreover, the Ki at Tyk2 was 2 nM. For the same molecule, in the assay on IFNγ induced IP-10, the “inhibition of IFNγ-induced IP-10 in retina/choroid tissues” value came out at 80% and the “inhibition of IFNγ-induced IP-10 in vitreous humor” value was determined as 81%. The molecule also had an inhibition at 1 µM against SRC of 93%.
